Literature values, collected in patent publication US20230181442A1, “METHOD FOR DYEING KERATIN MATERIAL, COMPRISING THE USE OF AN ORGANOSILICON COMPOUND, HYALURONIC ACID (SALT), A DYEING COMPOUND AND A POST-TREATMENT AGENT” (Henkel AG & Co. KGaA, priority 2020, published 2023).

Details: for solubility in water: 25° C.

solubility in water (in words) (water at 25° C.) | solubility in water | Compound
highly soluble | – | O=C(O)C1=NN(c2ccc(S(=O)(=O)O)cc2)C(=O)C1N=Nc1ccc(S(=O)(=O)O)cc1 (stereo not shown) [Acid Yellow 23, 4,5-dihydro-5-oxo-1-(4-sulfophenyl)-4-((4-sulfophenyl)azo)-1H-pyrazole-3-carboxylic acid]
– | above 40 g/L | O=[N+]([O-])c1cc([N+](=O)[O-])c2ccc(S(=O)(=O)O)cc2c1O [Acid Yellow 9, 8-hydroxy-5,7-dinitro-2-naphthalenesulfonic acid]
– | more than 20 wt. % | CCN(Cc1cccc(S(=O)(=O)O)c1)c1ccc(C(=C2C=CC(=[N+](CC)Cc3cccc(S(=O)(=O)O)c3)C=C2)c2ccccc2S(=O)(=O)[O-])cc1 [Acid Blue 9]

Compound | solubility in water (in words) (water at 25° C.) | solubility in water
O=S(=O)(O)c1ccc(N=Nc2c(O)ccc3ccccc23)cc1 [Acid Orange 7, 4-[(2-hydroxy-1-naphthyl)azo]benzene sulfonate] | – | more than 7 g/L
